# In patent publication US7223400B2, “Method to prepare compositions comprising yeast treated with electromagnetic energy” (Ultra Biotech Limited, priority 2003, dated 2007):
# Tests used:
# [1] = tested on: stomach cancer cells (cell line from a DMH-induced Wistar rat stomach cancer); test: Wistar rat model of transplanted stomach cancer, growth of the tumor; format: in vivo, Wistar rats; conditions: 22nd day from tumor inoculation; 21 consecutive days; AY/NY 0.8 ml oral once per day, ADM 10^5 units per kg i.v. per day
# Excerpt: The growth of the tumor in the rats was studied.
# Numerous animal studies have reported the use of Wistar rats in the study of treating stomach cancer. 1,2-dimethylhydrazine (DMH) is a well-known effective trigger of stomach cancer in rats. Accordingly, this experiment used DMH in designing Wistar rat model of human stomach cancer. Detailed description of the use of 1,2-dimethylhydrazine to induce stomach cancer can be found in Watanabe H. et al., 1999, Jpn J Cancer Res. 90(11):1207–11, which is incorporated herein by reference in its entirety.
# The animals used in the experiments were Wistar rats (obtainable from the Chinese Academy of Military Medical Sciences, Beijing, China). The stomach cancer cell line (obtainable from the First Military Medical University of China, Guangzhou, China) was generated in 1991 from a Wistar rat stomach cancer which was induced by subcutaneous injection of DMH. The rats were injected subcutaneously with 2.5×10^6 stomach cancer cells per animal.
# In group AY, the rats received 0.8 ml of the biological composition once per day. In group NY, the rats received 0.8 ml of the untreated yeast cells once per day. In group ADM, the rats were injected intravenously with 10^5 units of doxorubicin (adriamycin, ADM) per kg body weight per day. In group CK1, the rats received 0.8 ml of physiological saline once per day. […]
# [2] = tested on: stomach cancer cells (cell line from a DMH-induced Wistar rat stomach cancer); test: Wistar rat model of transplanted stomach cancer, survival time; format: in vivo, Wistar rats; conditions: for Number of live animals remaining in the groups after 21 days of treatment: 30 rats per group
# Protocol: In group 2ADM, the rats were injected intravenously with 1.5×10^5 units of doxorubicin (adriamycin, ADM) per kg body weight per day.
# [3] = tested on: stomach cancer cell line S784; test: TA2 mouse model of stomach cancer, growth of tumors; format: in vivo, TA2 mice; conditions: 31st day from tumor inoculation; 30 consecutive days; AY/NY 0.3 ml oral once per day, ADM 10^5 units per kg i.v. per day
# Excerpt: The growth of tumors in the mice was studied.
# Numerous animal studies have reported the use of murine models in the study of treating stomach cancer. Methylcholanthrene (MC) is a well-known effective trigger of stomach cancer in mice. Accordingly, this experiment used MC in designing TA2 mouse model of human stomach cancer. Detailed description of the use of methylcholanthrene to induce stomach cancer can be found in Wang X. H. et al., 1984, Chin Med J (Engl) 97(3):215–22, which is incorporated herein by reference in its entirety.
# The animals used for the experiments were TA2 mice, 6 to 8 weeks old (obtainable from the Second Military Medical University, Shanghai, China). Both male and females with an average weight of about 18 to 20 gram were used. The stomach cancer cell line S784 (obtainable from MC-treated TA2 mouse provided by the Tianjian Medical University, China) in a suspension containing about 1.2×10^7 viable tumor cells (about 0.2 ml cell culture) was injected subcutaneously into the animals.
# In group ADM, the mice were injected intravenously with 10^5 units of doxorubicin (adriamycin, ADM) per kg body weight per day.
# [4] = tested on: stomach cancer cell line S784; test: Mouse model of stomach cancer, survival time; format: in vivo, TA2 mice; conditions: for Number of live animals remaining in the groups after 30 days of treatment: 30 mice per group
# Protocol: In group 2ADM, the mice were injected intravenously with 1.5×10^5 units of doxorubicin (adriamycin, ADM) per kg body weight per day.
# [5] = 1 month after cessation of treatment
# [6] = 2 months after cessation of treatment
# [7] = 3 months after cessation of treatment
# [8] = 4 months after cessation of treatment
# [9] = 5 months after cessation of treatment
# [10] = 6 months after cessation of treatment
# [11] = rats that survived, observed over 6 months, 1.2 ml oral or ADM 1.5×10^5 units per kg i.v. per day, 21 days
# [12] = mice that survived, observed over 6 months, 0.5 ml oral or ADM 1.5×10^5 units per kg i.v. per day
smiles,measurement,setting,value
"COc1cccc2c1C(=O)c1c(O)c3c(c(O)c1C2=O)C[C@@](O)(C(=O)CO)C[C@@H]3O[C@H]1C[C@H](N)[C@H](O)[C@H](C)O1 [ADM, doxorubicin]",mean weight of rats and standard deviation,[1],181.8 ± 12.8 g
same,mean weight of tumor nodules and standard deviation,[1],446.4 ± 13.6 mg
same,Number of live animals remaining in the groups after 21 days of treatment,"[2]; 0 month after cessation of treatment, 1.2 ml oral or ADM 1.5×10^5 units per kg i.v. per day",30
same,Number of live animals remaining in the groups after 21 days of treatment,[2]; [5],30
same,survival of rats bearing stomach cancer cells,"[2]; 1.2 ml oral per day or ADM 1.5×10^5 units per kg per day, from injection of tumor cells",all died after four months
same,Number of live animals remaining in the groups after 21 days of treatment,[2]; [6],30
same,Number of live animals remaining in the groups after 21 days of treatment,[2]; [7],22
same,Number of live animals remaining in the groups after 21 days of treatment,[2]; [8],17
same,Number of live animals remaining in the groups after 21 days of treatment,[2]; [9],13
same,Number of live animals remaining in the groups after 21 days of treatment,[2]; [10],0
same,mean weight of rats and standard deviation,[2]; [11],all animals dead
same,mean weight of tumor nodules and standard deviation,[2]; [11],all animals dead
same,mean weight of mice and standard deviation,[3],19.8 ± 0.8 g
same,mean weight of stomach and standard deviation,[3],621 ± 17 mg
same,mean weight of tumor nodules and standard deviation,[3],346 ± 36 mg
same,Number of live animals remaining in the groups after 30 days of treatment,"[4]; 0 month after cessation of treatment, 0.5 ml oral or ADM 1.5×10^5 units per kg i.v. per day",30
same,survival of mice bearing stomach cancer cells,"[4]; 0.5 ml oral per day or ADM 1.5×10^5 units per kg per day, from injection of tumor cells",all died after four months
same,Number of live animals remaining in the groups after 30 days of treatment,[4]; [5],30
same,Number of live animals remaining in the groups after 30 days of treatment,[4]; [6],27
same,Number of live animals remaining in the groups after 30 days of treatment,[4]; [7],16
same,Number of live animals remaining in the groups after 30 days of treatment,[4]; [8],7
same,Number of live animals remaining in the groups after 30 days of treatment,[4]; [9],0
same,Number of live animals remaining in the groups after 30 days of treatment,[4]; [10],0
same,mean weight of mice and standard deviation,[4]; [12],all animals dead
same,mean weight of stomach and standard deviation,[4]; [12],all animals dead
same,mean weight of tumor nodules and standard deviation,[4]; [12],all animals dead
